Results as given in US8834843B2, “Imaging method” (GE Healthcare Limited, priority 2007, dated 2014).
Like-named read-outs stand apart in the source and are kept apart here. Numbered stars: 1 amine (or outer) side, 2 acyl side, 3 side chain; on linkers, the order of the positions; unused ones are H or OH. Bridge positions count the residues as written; N and C are the ends. Side chains are listed from the residue outwards. Peptide text beside a SMILES is read from it. * marks the point of attachment. X1 = C/C(=N\O)C(C)(C)NCCC(CCNC(C)(C)/C(C)=N/O)CCN*; Glutaryl = O=C(CCCC(=O)[*:2])[*:1]; X2 = NC(=O)COCC(=O)NCCOCCOCCOCCN*

Columns and labels:
[1] = Biodistribution in sham-operated rats with and without excess cold compound; format: in vivo; settings: male, Sprague Dawley, rat, iv, total radioactivity, 15 days post-op, 1 hour post-injection; for dose excreted at 1 h: bile and urine
Experimental: On the appropriate day post surgery BDL and sham animals were removed and put under isoflurane anaesthesia, then each animal was injected with 0.3 ml intravenously (i.v.) via tail vein (˜3MBq). At the appropriate time point post-injection of the test item, each animal was re-anaesthetised with isoflurane, sacrificed by cervical dislocation weighed and the weight recorded via a barcode scanning system. Each animal was dissected and the following organs and tissues were removed and counted using BASIL counter protocol 40 or manual counting:
The recorded activity in a whole organ (e.g., liver) was corrected for background radioactivity and for radioactive decay and the biodistribution of radioactivity calculated by reference to Formula I:
[formula] where: • A=counts per second measured in organ • B=total counts per second measured in all samples (excluding the injection site)
The percentage of injected radioactivity in the weighed tissue samples (e.g., blood) was calculated to give % i.d. in the entire tissue by reference to Formula 2:
[formula] where: • Zs=counts per second in sample • Ws=weight of sample in grams • Wb=weight of animal in grams immediately after sacrifice • B=total counts per second measured in all the samples (excluding the injection site) • F=tissue specific factor representing the mass of the tissue as a proportion of the total body weight of the animal
The biodistribution of radioactivity was investigated in 15 days post-operatively in BDL and sham-operated male Sprague Dawley rats (procedures described in Example 3) 1 hour following of intravenous injection via tail vein of ˜3 MBq of Compound 8, both before and after addition of 1:100 and 1:10,000 fold excess of cold Compound 8. At the appropriate time point post-injection of the test Item, each animal was re-anaesthetised with isoflurane, sacrificed by cervical dislocation and weighed. Each animal was dissected and organs and tissues (see Tables 5 and 6 below) were removed and counted using BASIL counter protocol 40 or manual counting.

[2] = molecular target: EA-Hy926 membranes; assay: Competitive binding assay with 125I-echistatin on EA-Hy926 membranes; design: species or system human; settings: cold compound vs 125I-echistatin, 1 hour at 37° C.; read-out: Ki in the EA-Hy926 membrane assay
Experimental: The inhibition constant of Compound 6 was measured using a previously-described membrane binding assay (Indrevoll et al, Bioorg & Med Chem Lett, 2006, 16, 6190-6193).
In brief, membranes from the human endothelial adenocarcinoma cell line EA-Hy926 were prepared and the Kd calculated for the purified membrane fraction. A competitive binding assay was then established to measure inhibition constants for cold Compound 6. ^125I-echistatin was used as the labelled ligand and cold echistatin as a reference standard.
A total of sixteen dilutions of cold test compound (either cold echistatin or cold Compound 6) were prepared and mixed with a combination of ^125I-echistatin and membrane prior to incubation for 1 hour at 37° C. Following several washes, the bound material was harvested on a filter using a Skatron micro harvester. The filterspots were finally excised and counted in a Packard γ-counter.
The inhibition constants for Compound 3 and Compound 8 were determined using the method described in Example 1. FIG. 3 illustrates binding of ^125I-echistatin versus cold Compound 3, Compound 8 and echistatin on EA-Hy926 membranes.

- dose excreted at 1 h ([1]; +10K-fold excess cold Compound 8): 46.5%
- dose excreted at 1 h ([1]; +100-fold excess cold Compound 8): 43.2%
- dose excreted at 1 h ([1]; no excess): 44.6%
- tissue uptake dose at 1 h ([1]; blood, +10K-fold excess cold Compound 8, read-out: Activity in Blood, Mean): 1.4 %ID
- tissue uptake dose at 1 h ([1]; blood, +100-fold excess cold Compound 8, read-out: Activity in Blood, Mean): 1.37 %ID
- tissue uptake dose at 1 h ([1]; blood, no excess, read-out: Activity in Blood, Mean): 1.55 %ID
- tissue uptake dose at 1 h ([1]; bone, 3 MBq, +10K-fold excess cold Compound 8, read-out: Activity in Bone, Mean): 2.42 %ID
- tissue uptake dose at 1 h ([1]; bone, 3 MBq, +100-fold excess cold Compound 8, read-out: Activity in Bone, Mean): 3.06 %ID
- tissue uptake dose at 1 h ([1]; bone, 3 MBq, no excess, read-out: Activity in Bone, Mean): 3.1 %ID
- tissue uptake dose at 1 h ([1]; carcass, 3 MBq, +10K-fold excess cold Compound 8, read-out: Activity in Carcass, Mean): 11.6 %ID
- tissue uptake dose at 1 h ([1]; carcass, 3 MBq, +100-fold excess cold Compound 8, read-out: Activity in Carcass, Mean): 9.32 %ID
- tissue uptake dose at 1 h ([1]; carcass, 3 MBq, no excess, read-out: Activity in Carcass, Mean): 8.45 %ID
- tissue uptake dose at 1 h ([1]; heart, 3 MBq, +10K-fold excess cold Compound 8, read-out: Activity in Heart, Mean): 0.1 %ID
- tissue uptake dose at 1 h ([1]; heart, 3 MBq, +100-fold excess cold Compound 8, read-out: Activity in Heart, Mean): 0.1 %ID
- tissue uptake dose at 1 h ([1]; heart, 3 MBq, no excess, read-out: Activity in Heart, Mean): 0.12 %ID
- tissue uptake dose at 1 h ([1]; injection site, 3 MBq, +10K-fold excess cold Compound 8, read-out: Activity in Injection Site, Mean): 1.71 %ID
- tissue uptake dose at 1 h ([1]; injection site, 3 MBq, +100-fold excess cold Compound 8, read-out: Activity in Injection Site, Mean): 1.44 %ID
- tissue uptake dose at 1 h ([1]; injection site, 3 MBq, no excess, read-out: Activity in Injection Site, Mean): 1.66 %ID
- tissue uptake dose at 1 h ([1]; kidneys, +10K-fold excess cold Compound 8, read-out: Activity in Kidneys, Mean): 3.65 %ID
- tissue uptake dose at 1 h ([1]; kidneys, +100-fold excess cold Compound 8, read-out: Activity in Kidneys, Mean): 4.13 %ID
- tissue uptake dose at 1 h ([1]; kidneys, no excess, read-out: Activity in Kidneys, Mean): 4.07 %ID
- tissue uptake dose at 1 h ([1]; liver, 3 MBq, +10K-fold excess cold Compound 8, read-out: Activity in Liver, Mean): 3.03 %ID
- tissue uptake dose at 1 h ([1]; liver, 3 MBq, +100-fold excess cold Compound 8, read-out: Activity in Liver, Mean): 3.52 %ID
- tissue uptake dose at 1 h ([1]; liver, 3 MBq, no excess, read-out: Activity in Liver, Mean): 3.71 %ID
- tissue uptake dose at 1 h ([1]; lung, 3 MBq, +10K-fold excess cold Compound 8, read-out: Activity in Lung, Mean): 0.39 %ID
- tissue uptake dose at 1 h ([1]; lung, 3 MBq, +100-fold excess cold Compound 8, read-out: Activity in Lung, Mean): 0.38 %ID
- tissue uptake dose at 1 h ([1]; lung, 3 MBq, no excess, read-out: Activity in Lung, Mean): 0.46 %ID
- tissue uptake dose at 1 h ([1]; muscle, 3 MBq, +100-fold excess cold Compound 8, read-out: Activity in Muscle, Mean): 10.9 %ID
- tissue uptake dose at 1 h ([1]; muscle, 3 MBq, no excess, read-out: Activity in Muscle, Mean): 10.4 %ID
- tissue uptake dose at 1 h ([1]; muscle, +10K-fold excess cold Compound 8, read-out: Activity in Muscle, Mean): 8.41 %ID
- tissue uptake dose at 1 h ([1]; skin, 3 MBq, +10K-fold excess cold Compound 8, read-out: Activity in Skin, Mean): 12.7 %ID
- tissue uptake dose at 1 h ([1]; skin, 3 MBq, +100-fold excess cold Compound 8, read-out: Activity in Skin, Mean): 14 %ID
- tissue uptake dose at 1 h ([1]; skin, 3 MBq, no excess, read-out: Activity in Skin, Mean): 14.4 %ID
- tissue uptake dose at 1 h ([1]; small and large intestine, 3 MBq, +10K-fold excess cold Compound 8, read-out: Activity in Small & Large Intestine, Mean): 7.54 %ID
- tissue uptake dose at 1 h ([1]; small and large intestine, 3 MBq, +100-fold excess cold Compound 8, read-out: Activity in Small & Large Intestine, Mean): 8.42 %ID
- tissue uptake dose at 1 h ([1]; small and large intestine, 3 MBq, no excess, read-out: Activity in Small & Large Intestine, Mean): 7.86 %ID
- tissue uptake dose at 1 h ([1]; spleen, 3 MBq, +10K-fold excess cold Compound 8, read-out: Activity in Spleen, Mean): 0.27 %ID
- tissue uptake dose at 1 h ([1]; spleen, 3 MBq, +100-fold excess cold Compound 8, read-out: Activity in Spleen, Mean): 0.29 %ID
- tissue uptake dose at 1 h ([1]; spleen, 3 MBq, no excess, read-out: Activity in Spleen, Mean): 0.29 %ID
- tissue uptake dose at 1 h ([1]; stomach, 3 MBq, +10K-fold excess cold Compound 8, read-out: Activity in Stomach, Mean): 1.92 %ID
- tissue uptake dose at 1 h ([1]; stomach, 3 MBq, +100-fold excess cold Compound 8, read-out: Activity in Stomach, Mean): 1.21 %ID
- tissue uptake dose at 1 h ([1]; stomach, 3 MBq, no excess, read-out: Activity in Stomach, Mean): 0.9 %ID
- tissue uptake dose at 1 h ([1]; thyroid, 3 MBq, +10K-fold excess cold Compound 8, read-out: Activity in Thyroid, Mean): 0.04 %ID
- tissue uptake dose at 1 h ([1]; thyroid, 3 MBq, +100-fold excess cold Compound 8, read-out: Activity in Thyroid, Mean): 0.05 %ID
- tissue uptake dose at 1 h ([1]; thyroid, 3 MBq, no excess, read-out: Activity in Thyroid, Mean): 0.05 %ID
- Ki [2]: 6 nM
Compound: C/C(=N\O)C(C)(C)NCCC(CCNC(=O)CCCC(=O)NCCCC[C@@H]1NC(=O)CSC[C@@H](C(=O)NCCOCCOCCOCCNC(=O)COCC(N)=O)NC(=O)[C@H](Cc2ccccc2)NC(=O)[C@@H]2CSSC[C@H](NC1=O)C(=O)N[C@@H](CCCNC(=N)N)C(=O)NCC(=O)N[C@@H](CC(=O)O)C(=O)N2)CCNC(C)(C)/C(C)=N/O (stereo partly shown) [Compound 8] ({CH2CO}-K([Glutaryl-X1])CRGDCFC-X2; disulfide 2-6; thioether N-8)
